System: ventricular contractile force
Assay: Ventricular contractile force in anesthetized open-chest dogs (strain gauge on left ventricle), i.v. injection into left saphenous vein
Assay type: in vivo
Conditions: for ED (30% increase): Canis lupus familiaris, iv, male dogs, anesthetized, injected into left saphenous vein, read-out: Dose which induces about 30% increase in the ventricular contractile force; for t 1/2: period of time in decreasing the cardiac contractile force to 50% of its maximum value: male dogs 11 to 13 kg, sodium pentobarbital anesthesia, i.v., dose inducing about 30% increase in ventricular contractile force, ± S.E.
Procedure: Male dogs weighing about 11 to 13 kg were anesthetized with sodium pentobarbital (30 mg/kg, i.v.). Under artificial respiration, the heart was exposed by thoractomy, and a calibrated strain gauge was attached to the wall of the left ventricle for oscillographical measurement of the ventricular contractile force. The heart rate was recorded by cardiotachography, triggered by arterial pulse. A test compound was injected into the left saphenous vein at a dose which induces about 30% increase in the ventricular contractile force.
*:Period of time in decreasing the cardiac contractile force to 50% of it

SMILES | ED (30% increase) [mg/kg] | t 1/2: period of time in decreasing the cardiac contractile force to 50% of its maximum value [s]
COc1ccc(CCNCC(O)c2ccc(OC(=O)C(C)(C)C)cc2)cc1OC (stereo not drawn) [α-(3,4-dimethoxyphenethylaminomethyl)-4-pivaloyloxybenzylalcohol] | 0.037 | 1232 ± 71
COc1ccc(CCNCC(O)c2ccc(OC(=O)c3ccccc3)cc2)cc1OC (stereo not drawn) [α-(3,4-dimethoxyphenethylaminomethyl)-4-benzoyloxybenzylalcohol] | 0.039 | 1453 ± 43
COc1ccc(CCNCC(O)c2ccc(OC(=O)c3ccc(C)cc3)cc2)cc1OC (stereo not drawn) [α-(3,4-dimethoxyphenethylaminomethyl)-4-p-toluoyloxybenzylalcohol] | 0.04 | 1495 ± 25

— patent US4324800A, “Novel benzylalcohol derivatives and processes for preparing same” (Tanabe Seiyaku Co., Ltd., priority 1980, dated 1982)
